Laboratory results published in patent US20230135729A1, “COMPOUND WITH ANTI-SPORE ACTIVITY AND PHARMACEUTICAL COMPOSITION THEREOF” (priority 2020, published 2023).
In brackets after ≈: the same amount, converted by molar mass. Read-outs that look alike come from different tables or passages of the source.

Assays:
Assay type in all cases: cell-based
[1] = test system: spores of ATCC 43255 strain; assay: Inhibition of germination of C. difficile spores (MIC), strain ATCC 43255; settings: Clostridioides difficile, ATCC43255, 1 h, read-out: MIC (minimum concentration that completely inhibits spore germination)
Description: (§1) According to a method disclosed in “The Journal of Infectious Diseases. 2013; 207: 1498-504”, spores of ATCC BBA1870, ATCC 43255 and ATCC 630 strains were obtained by culture and purification, and stored at 4° C.
(§2) Spore preparation: the C. difficile spores stored at 4° C. were heat-activated for 30 min at 65° C., centrifuged at 9,400 g for 2 min, and washed three times to remove any self-germinating spores.
(§3) Control drug: three cholic acid derivatives, a compound CamSA, a compound 20β (prepared by the method of “Journal of Medicinal Chemistry. 2017, 60 (8): 3451-3471”), and a compound 12a (prepared by the method of “Journal of Medicinal Chemistry. 2018, 61, 6759-6778”), were used as control drugs.
(§4) Compound preparation: the compound of the present disclosure, and the positive control drugs CamSA, 20β, and 12a were dissolved in DMSO, to prepare a stock solution with a concentration of 10 mM (prepared for immediate use).
(§5) The detection was conducted in a 96-well cell culture plate at a constant temperature of 37° C.; a final volume of each well of the 96-well plate was […] and a buffer was the BHIS medium; 150 μl of spores and drugs were added to the well in advance, and 50 μl of 4 mg/ml sodium taurocholate was added; OD580 was detected every 1 min immediately using a microplate reader, for continuously 60 min. A germination agent control group and a non-germination group were set up; after the detection, a final OD value of each well was compared with an initial value, and compared with the germination agent group to calculate a germination rate and an inhibition rate. A formula for the germination rate was:
(§6) Inhibition rate=100%−germination rate.

[2] = test system: spores of ATCC 630 strain; assay: Inhibition of germination of C. difficile spores (MIC), strain ATCC 630; settings: Clostridioides difficile, ATCC630, 1 h, read-out: MIC (minimum concentration that completely inhibits spore germination)
Description: as §1, §2, §3, §4, §5, §6

[3] = test system: spores of ATCC BBA1870 strain; assay: Inhibition of germination of C. difficile spores (MIC), strain ATCC BBA1870; settings: Clostridioides difficile, ATCCBBA1870STRAIN, 1 h, read-out: MIC (minimum concentration that completely inhibits spore germination)
Description: as §1, §2, §3, §4, §5, §6

[4] = strain 43255, sodium taurocholate as germinant, BHIS medium, 37° C., OD580 for 60 min
[5] = strain 630, sodium taurocholate as germinant, BHIS medium, 37° C., OD580 for 60 min
[6] = strain 1870, sodium taurocholate as germinant, BHIS medium, 37° C., OD580 for 60 min

| SMILES | MIC [1, 4] | MIC [2, 5] | MIC [3, 6] | MIC [1] | MIC [2] | MIC [3] |
| --- | --- | --- | --- | --- | --- | --- |
| CC(NC(=O)C[C@@H](C)[C@H]1CC[C@H]2[C@@H]3C(=O)C[C@@H]4CC(=O)CC[C@]4(C)[C@H]3CC[C@]12C)c1cccs1 (stereo partly drawn) [Compound I-27] | 2 µM (≈ 0.967 µg/mL) | 2 µM (≈ 0.967 µg/mL) | 2 µM (≈ 0.967 µg/mL) |  |  |  |
| C[C@H](NC(=O)C[C@@H](C)[C@H]1CC[C@H]2[C@@H]3C(=O)C[C@@H]4CC(=O)CC[C@]4(C)[C@H]3CC[C@]12C)c1cccs1 [Compound I-28] | > 256 µM | > 256 µM | > 256 µM |  |  |  |
| C[C@H](CC(=O)N[C@H](C)c1cccs1)[C@H]1CC[C@H]2[C@@H]3C(=O)C[C@@H]4CC(=O)CC[C@]4(C)[C@H]3CC[C@]12C [Compound I-29] | 1 µM (≈ 0.484 µg/mL) | 1 µM (≈ 0.484 µg/mL) | 1 µM (≈ 0.484 µg/mL) |  |  |  |
| Cc1ccc(C(C)NC(=O)C[C@@H](C)[C@H]2CC[C@H]3[C@@H]4C(=O)C[C@@H]5CC(=O)CC[C@]5(C)[C@H]4CC[C@]23C)s1 (stereo partly drawn) [Compound I-30] | 2 µM (≈ 0.995 µg/mL) | 1 µM (≈ 0.498 µg/mL) | 2 µM (≈ 0.995 µg/mL) |  |  |  |
| Cc1ccsc1C(C)NC(=O)C[C@@H](C)[C@H]1CC[C@H]2[C@@H]3C(=O)C[C@@H]4CC(=O)CC[C@]4(C)[C@H]3CC[C@]12C (stereo partly drawn) [Compound I-31] | 8 µM (≈ 3.98 µg/mL) | 8 µM (≈ 3.98 µg/mL) | 8 µM (≈ 3.98 µg/mL) |  |  |  |
| CC(NC(=O)C[C@@H](C)[C@H]1CC[C@H]2[C@@H]3C(=O)C[C@@H]4CC(=O)CC[C@]4(C)[C@H]3CC[C@]12C)c1ccc(Br)s1 (stereo partly drawn) [Compound I-33] | 1 µM (≈ 0.563 µg/mL) | 0.5 µM (≈ 0.281 µg/mL) | 0.5 µM (≈ 0.281 µg/mL) |  |  |  |
| CC(NC(=O)C[C@@H](C)[C@H]1CC[C@H]2[C@@H]3C(=O)C[C@@H]4CC(=O)CC[C@]4(C)[C@H]3CC[C@]12C)c1ccc(S(=O)(=O)O)s1 (stereo partly drawn) [Compound I-34] | 64 µM (≈ 36.1 µg/mL) | 64 µM (≈ 36.1 µg/mL) | 64 µM (≈ 36.1 µg/mL) |  |  |  |
| CC[C@H](NC(=O)C[C@@H](C)[C@H]1CC[C@H]2[C@@H]3C(=O)C[C@@H]4CC(=O)CC[C@]4(C)[C@H]3CC[C@]12C)c1cccs1 [Compound I-36] | 8 µM (≈ 3.98 µg/mL) | 4 µM (≈ 1.99 µg/mL) | 8 µM (≈ 3.98 µg/mL) |  |  |  |
| CCC(NC(=O)C[C@@H](C)[C@H]1CC[C@H]2[C@@H]3C(=O)C[C@@H]4CC(=O)CC[C@]4(C)[C@H]3CC[C@]12C)c1ccc(Br)s1 (stereo partly drawn) [Compound I-38] | 2 µM (≈ 1.15 µg/mL) | 1 µM (≈ 0.577 µg/mL) | 2 µM (≈ 1.15 µg/mL) |  |  |  |
| CCC(NC(=O)C[C@@H](C)[C@H]1CC[C@H]2[C@@H]3C(=O)C[C@@H]4CC(=O)CC[C@]4(C)[C@H]3CC[C@]12C)c1ccc(S(=O)(=O)O)s1 (stereo partly drawn) [Compound I-39] | 0.5 µM (≈ 0.289 µg/mL) | 0.5 µM (≈ 0.289 µg/mL) | 1 µM (≈ 0.578 µg/mL) |  |  |  |
| CC(C)C(NC(=O)C[C@@H](C)[C@H]1CC[C@H]2[C@@H]3C(=O)C[C@@H]4CC(=O)CC[C@]4(C)[C@H]3CC[C@]12C)c1cccs1 (stereo partly drawn) [Compound I-40] | 2 µM (≈ 1.02 µg/mL) | 2 µM (≈ 1.02 µg/mL) | 4 µM (≈ 2.05 µg/mL) |  |  |  |
| CCCCC(NC(=O)C[C@@H](C)[C@H]1CC[C@H]2[C@@H]3C(=O)C[C@@H]4CC(=O)CC[C@]4(C)[C@H]3CC[C@]12C)c1cccs1 (stereo partly drawn) [Compound I-42] | 1 µM (≈ 0.526 µg/mL) | 1 µM (≈ 0.526 µg/mL) | 2 µM (≈ 1.05 µg/mL) |  |  |  |
| C[C@H](CC(=O)NC(c1cccs1)C(C)(C)C)[C@H]1CC[C@H]2[C@@H]3C(=O)C[C@@H]4CC(=O)CC[C@]4(C)[C@H]3CC[C@]12C (stereo partly drawn) [Compound I-43] | 32 µM (≈ 16.8 µg/mL) | 32 µM (≈ 16.8 µg/mL) | 64 µM (≈ 33.7 µg/mL) |  |  |  |
| CCCCCC(NC(=O)C[C@@H](C)[C@H]1CC[C@H]2[C@@H]3C(=O)C[C@@H]4CC(=O)CC[C@]4(C)[C@H]3CC[C@]12C)c1cccs1 (stereo partly drawn) [Compound I-44] | > 256 µM | > 256 µM | 256 µM (≈ 138 µg/mL) |  |  |  |
| CCCCCCCC(NC(=O)C[C@@H](C)[C@H]1CC[C@H]2[C@@H]3C(=O)C[C@@H]4CC(=O)CC[C@]4(C)[C@H]3CC[C@]12C)c1cccs1 (stereo partly drawn) [Compound I-45] | > 256 µM | > 256 µM | > 256 µM |  |  |  |
| CCCCCCCCCCCC(NC(=O)C[C@@H](C)[C@H]1CC[C@H]2[C@@H]3C(=O)C[C@@H]4CC(=O)CC[C@]4(C)[C@H]3CC[C@]12C)c1cccs1 (stereo partly drawn) [Compound I-46] | > 256 µM | > 256 µM | > 256 µM |  |  |  |
| CCCCCCCCCCCCCC(NC(=O)C[C@@H](C)[C@H]1CC[C@H]2[C@@H]3C(=O)C[C@@H]4CC(=O)CC[C@]4(C)[C@H]3CC[C@]12C)c1cccs1 (stereo partly drawn) [Compound I-47] | > 256 µM | > 256 µM | > 256 µM |  |  |  |
| C[C@H](CC(=O)N[C@H](c1cccs1)C1CC1)[C@H]1CC[C@H]2[C@@H]3C(=O)C[C@@H]4CC(=O)CC[C@]4(C)[C@H]3CC[C@]12C [Compound I-49] | > 256 µM | > 256 µM | > 256 µM |  |  |  |
| C[C@H](CC(=O)NC(c1ccc(S(=O)(=O)O)s1)C1CC1)[C@H]1CC[C@H]2[C@@H]3C(=O)C[C@@H]4CC(=O)CC[C@]4(C)[C@H]3CC[C@]12C (stereo partly drawn) [Compound I-52] | 16 µM (≈ 9.44 µg/mL) | 16 µM (≈ 9.44 µg/mL) | 16 µM (≈ 9.44 µg/mL) |  |  |  |
| C[C@H](CC(=O)NC(c1cccs1)C1CCCC1)[C@H]1CC[C@H]2[C@@H]3C(=O)C[C@@H]4CC(=O)CC[C@]4(C)[C@H]3CC[C@]12C (stereo partly drawn) [Compound I-53] | 32 µM (≈ 17.2 µg/mL) | 32 µM (≈ 17.2 µg/mL) | 32 µM (≈ 17.2 µg/mL) |  |  |  |
| C[C@H](CC(=O)NC(c1cccs1)C1CCCCC1)[C@H]1CC[C@H]2[C@@H]3C(=O)C[C@@H]4CC(=O)CC[C@]4(C)[C@H]3CC[C@]12C (stereo partly drawn) [Compound I-54] | > 256 µM | 256 µM (≈ 141 µg/mL) | > 256 µM |  |  |  |
| C[C@H](CC(=O)NC(c1ccccc1)c1cccs1)[C@H]1CC[C@H]2[C@@H]3C(=O)C[C@@H]4CC(=O)CC[C@]4(C)[C@H]3CC[C@]12C (stereo partly drawn) [Compound I-55] | 32 µM (≈ 17.5 µg/mL) | 32 µM (≈ 17.5 µg/mL) | 64 µM (≈ 34.9 µg/mL) |  |  |  |
| C[C@H](CC(=O)NC(c1cccs1)c1cccs1)[C@H]1CC[C@H]2[C@@H]3C(=O)C[C@@H]4CC(=O)CC[C@]4(C)[C@H]3CC[C@]12C [Compound I-56] | 16 µM (≈ 8.83 µg/mL) | 16 µM (≈ 8.83 µg/mL) | 16 µM (≈ 8.83 µg/mL) |  |  |  |
| C[C@H](CC(=O)NC(c1cccs1)C1CCC1)[C@H]1CC[C@H]2[C@@H]3C(=O)C[C@@H]4CC(=O)CC[C@]4(C)[C@H]3CC[C@]12C (stereo partly drawn) [Compound I-57] | 32 µM (≈ 16.8 µg/mL) | 16 µM (≈ 8.38 µg/mL) | 32 µM (≈ 16.8 µg/mL) |  |  |  |
| CCC(NC(=O)C[C@@H](C)[C@H]1CC[C@H]2[C@@H]3C(=O)C[C@@H]4CC(=O)CC[C@]4(C)[C@H]3CC[C@]12C)c1ccccc1 (stereo partly drawn) [Compound I-58] |  |  |  | 4 µM (≈ 1.97 µg/mL) | 4 µM (≈ 1.97 µg/mL) | 8 µM (≈ 3.93 µg/mL) |
| CC[C@H](NC(=O)C[C@@H](C)[C@H]1CC[C@H]2[C@@H]3C(=O)C[C@@H]4CC(=O)CC[C@]4(C)[C@H]3CC[C@]12C)c1ccccc1 [Compound I-59] |  |  |  | 64 µM (≈ 31.5 µg/mL) | 64 µM (≈ 31.5 µg/mL) | 128 µM (≈ 62.9 µg/mL) |
| CC[C@@H](NC(=O)C[C@@H](C)[C@H]1CC[C@H]2[C@@H]3C(=O)C[C@@H]4CC(=O)CC[C@]4(C)[C@H]3CC[C@]12C)c1ccccc1 [Compound I-60] |  |  |  | 2 µM (≈ 0.983 µg/mL) | 2 µM (≈ 0.983 µg/mL) | 2 µM (≈ 0.983 µg/mL) |
| C[C@H](CC(=O)NC(c1ccccc1)c1ccccc1)[C@H]1CC[C@H]2[C@@H]3C(=O)C[C@@H]4CC(=O)CC[C@]4(C)[C@H]3CC[C@]12C [Compound I-61] | 128 µM (≈ 69.1 µg/mL) | 128 µM (≈ 69.1 µg/mL) | 128 µM (≈ 69.1 µg/mL) |  |  |  |
| C[C@H](CC(=O)NC(Cc1ccccc1)c1ccccc1)[C@H]1CC[C@H]2[C@@H]3C(=O)C[C@@H]4CC(=O)CC[C@]4(C)[C@H]3CC[C@]12C (stereo partly drawn) [Compound I-62] |  |  |  | 128 µM (≈ 70.9 µg/mL) | 128 µM (≈ 70.9 µg/mL) | 256 µM (≈ 142 µg/mL) |
| C[C@H](CC(=O)NC(C(=O)O)c1ccccc1)[C@H]1CC[C@H]2[C@@H]3C(=O)C[C@@H]4CC(=O)CC[C@]4(C)[C@H]3CC[C@]12C (stereo partly drawn) [Compound I-63] | 256 µM (≈ 130 µg/mL) | 256 µM (≈ 130 µg/mL) | > 256 µM |  |  |  |
